Measured values published in ChEMBL document CHEMBL5143517, “Discovery and radiosensitization research of ursolic acid derivatives as SENP1 inhibitors” (Eur J Med Chem, 2022).
The source made the active and inactive calls.

Tests used:
HeLa [1] = assay: Radiosensitizing activity against human HeLa cells assessed as quasi-threshold dose at 5 uM pretreated for 24 hrs followed by exposure to 2 to 8 Gy gamma irradiation and measured after 2 weeks by crystal violet staining based analysis (reference value: 1.72 Gy); type: functional
HeLa [2] = assay: Radiosensitizing activity against human HeLa cells assessed as average lethal dose at 5 uM pretreated for 24 hrs followed by exposure to 2 to 8 Gy gamma irradiation and measured after 2 weeks by crystal violet staining based analysis (reference value: 1.47 Gy); type: functional
[3] = Cytotoxicity against human HeLa cells assessed as inhibition of cell growth incubated for 72 hrs by CCK-8 assay; type: toxicity, cell-based
HeLa [4] = assay: Radiosensitizing activity against human HeLa cells assessed as reduction in cell survival fractions at 5 uM pretreated for 24 hrs followed by exposure to 4 to 8 Gy gamma irradiation and measured after 2 weeks by crystal violet staining based analysis; type: functional
HeLa [5] = assay: Radiosensitizing activity against human HeLa cells assessed as radiosensitization enhancement ratio at 5 uM pretreated for 24 hrs followed by exposure to 2 to 8 Gy gamma irradiation and measured after 2 weeks by crystal violet staining based analysis (reference value: 1); type: functional
[6] = molecular target: T1, Sentrin-specific protease 1 (Homo sapiens, UniProt Q9P0U3); assay: Inhibition of recombinant human SENP1 catalytic domain using RanGAP1 as substrate preincubated for 10 mins followed by substrate addition and measured after 30 mins by Western blot analysis
T1 sequence (Q9P0U3 whole entry): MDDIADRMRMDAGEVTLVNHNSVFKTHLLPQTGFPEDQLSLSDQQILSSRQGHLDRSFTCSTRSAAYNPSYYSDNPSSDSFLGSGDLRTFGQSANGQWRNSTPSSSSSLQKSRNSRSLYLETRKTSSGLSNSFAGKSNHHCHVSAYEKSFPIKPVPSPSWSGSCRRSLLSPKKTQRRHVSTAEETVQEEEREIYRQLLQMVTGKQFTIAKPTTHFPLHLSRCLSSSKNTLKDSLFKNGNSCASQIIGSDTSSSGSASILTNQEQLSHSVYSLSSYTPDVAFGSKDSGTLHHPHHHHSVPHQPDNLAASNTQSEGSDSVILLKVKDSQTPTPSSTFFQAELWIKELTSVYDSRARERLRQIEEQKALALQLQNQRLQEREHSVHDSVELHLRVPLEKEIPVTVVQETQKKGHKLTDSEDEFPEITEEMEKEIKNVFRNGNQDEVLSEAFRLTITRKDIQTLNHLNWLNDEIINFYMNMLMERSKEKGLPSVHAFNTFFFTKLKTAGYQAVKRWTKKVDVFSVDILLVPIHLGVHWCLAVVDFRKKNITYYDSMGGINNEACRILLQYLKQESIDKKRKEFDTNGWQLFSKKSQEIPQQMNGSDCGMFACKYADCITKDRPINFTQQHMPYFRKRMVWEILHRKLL

SMILES | IC50 at 72 h [3] [µM] | other results
CNC(=O)CNC(=O)[C@]12CC[C@@H](C)[C@H](C)[C@H]1C1=CC[C@@H]3[C@@]4(C)CC[C@H](O)C(C)(C)[C@@H]4CC[C@@]3(C)[C@]1(C)CC2 | > 20 | LD (HeLa [1]): 1.92 Gy; LD (HeLa [2]): 1.02 Gy; Activity (HeLa [4]): Active
C[C@H]1[C@H](C)CC[C@]2(C(=O)O)CC[C@]3(C)C(=CC[C@@H]4[C@@]5(C)CC[C@H](O)C(C)(C)[C@@H]5CC[C@]43C)[C@H]12 [URSOLIC ACID] |  | LD (HeLa [1]): 1.77 Gy; LD (HeLa [2]): 1.2 Gy; Ratio (HeLa [5]): 1.22; Activity (HeLa [4]): Active; IC50 [6]: 2.58 µM
C[C@H]1[C@H](C)CC[C@]2(C(=O)NCC(N)=O)CC[C@]3(C)C(=CC[C@@H]4[C@@]5(C)CC[C@H](O)C(C)(C)[C@@H]5CC[C@]43C)[C@H]12 | > 20 | 
C[C@H]1[C@H](C)CC[C@]2(C(=O)N(C)CC(=O)O)CC[C@]3(C)C(=CC[C@@H]4[C@@]5(C)CC[C@H](O)C(C)(C)[C@@H]5CC[C@]43C)[C@H]12 | > 20 | 
C[C@H]1[C@H](C)CC[C@]2(C(=O)OCCN3CCN(C)CC3)CC[C@]3(C)C(=CC[C@@H]4[C@@]5(C)CC[C@H](O)C(C)(C)[C@@H]5CC[C@]43C)[C@H]12 | > 20 | 
C[C@H]1[C@H](C)CC[C@]2(C(=O)OCCN3CCN(CCO)CC3)CC[C@]3(C)C(=CC[C@@H]4[C@@]5(C)CC[C@H](O)C(C)(C)[C@@H]5CC[C@]43C)[C@H]12 | > 20 | 
COC(=O)[C@]12CC[C@@H](C)[C@H](C)[C@H]1C1=CC[C@@H]3[C@@]4(C)CC[C@H](O)C(C)(C)[C@@H]4CC[C@@]3(C)[C@]1(C)CC2 [METHYL URSOLATE] | > 20 | 
C[C@H]1[C@H](C)CC[C@]2(C(=O)OCC(=O)O)CC[C@]3(C)C(=CC[C@@H]4[C@@]5(C)CC[C@H](O)C(C)(C)[C@@H]5CC[C@]43C)[C@H]12 | > 20 | LD (HeLa [1]): 2.07 Gy; LD (HeLa [2]): 1.26 Gy; Activity (HeLa [4]): Active
C[C@H]1[C@H](C)CC[C@]2(C(=O)NCC(=O)O)CC[C@]3(C)C(=CC[C@@H]4[C@@]5(C)CC[C@H](O)C(C)(C)[C@@H]5CC[C@]43C)[C@H]12 | > 20 | 
COC(=O)CCNC(=O)[C@]12CC[C@@H](C)[C@H](C)[C@H]1C1=CC[C@@H]3[C@@]4(C)CC[C@H](OC(C)=O)C(C)(C)[C@@H]4CC[C@@]3(C)[C@]1(C)CC2 | > 20 | 
CNC(=O)CCNC(=O)[C@]12CC[C@@H](C)[C@H](C)[C@H]1C1=CC[C@@H]3[C@@]4(C)CC[C@H](OC(C)=O)C(C)(C)[C@@H]4CC[C@@]3(C)[C@]1(C)CC2 | > 20 | 
C[C@H]1[C@H](C)CC[C@]2(C(=O)OCCO)CC[C@]3(C)C(=CC[C@@H]4[C@@]5(C)CC[C@H](O)C(C)(C)[C@@H]5CC[C@]43C)[C@H]12 | > 20 | 
CNC(=O)CNC(=O)[C@]12CC[C@@H](C)[C@H](C)[C@H]1C1=CC[C@@H]3[C@@]4(C)CC[C@H](OC(C)=O)C(C)(C)[C@@H]4CC[C@@]3(C)[C@]1(C)CC2 | > 20 | 
C[C@H]1[C@H](C)CC[C@]2(C(=O)NCC(=O)NCC(O)CO)CC[C@]3(C)C(=CC[C@@H]4[C@@]5(C)CC[C@H](O)C(C)(C)[C@@H]5CC[C@]43C)[C@H]12 (stereo partly specified) | > 20 | 
COC(=O)CN(C)C(=O)[C@]12CC[C@@H](C)[C@H](C)[C@H]1C1=CC[C@@H]3[C@@]4(C)CC[C@H](OC(C)=O)C(C)(C)[C@@H]4CC[C@@]3(C)[C@]1(C)CC2 | > 20 | 
COC(=O)[C@]12CC[C@@H](C)[C@H](C)[C@H]1C1=CC[C@@H]3[C@@]4(C)CC[C@H](OC(C)=O)C(C)(C)[C@@H]4CC[C@@]3(C)[C@]1(C)CC2 | > 20 | 
C[C@H]1[C@H](C)CC[C@]2(C(=O)OCCNC(=O)OC(C)(C)C)CC[C@]3(C)C(=CC[C@@H]4[C@@]5(C)CC[C@H](O)C(C)(C)[C@@H]5CC[C@]43C)[C@H]12 | > 20 | 
COC(=O)[C@@H]1CCCN1C(=O)[C@]12CC[C@@H](C)[C@H](C)[C@H]1C1=CC[C@@H]3[C@@]4(C)CC[C@H](OC(C)=O)C(C)(C)[C@@H]4CC[C@@]3(C)[C@]1(C)CC2 | > 20 | 
CC(=O)O[C@H]1CC[C@]2(C)[C@H]3CC=C4[C@@H]5[C@@H](C)[C@H](C)CC[C@]5(C(=O)NCCBr)CC[C@@]4(C)[C@]3(C)CC[C@H]2C1(C)C | > 20 | 
COC(=O)CNC(=O)[C@]12CC[C@@H](C)[C@H](C)[C@H]1C1=CC[C@@H]3[C@@]4(C)CC[C@H](OC(C)=O)C(C)(C)[C@@H]4CC[C@@]3(C)[C@]1(C)CC2 | > 20 | 
C[C@H]1[C@H](C)CC[C@]2(C(=O)OCCN3CCCCC3)CC[C@]3(C)C(=CC[C@@H]4[C@@]5(C)CC[C@H](O)C(C)(C)[C@@H]5CC[C@]43C)[C@H]12 | > 20 | 
